Patent US20170231929A1, “METHOD FOR ENHANCING IMMUNE CELL FUNCTION AND METHOD FOR ASSESSING IMMUNE CELL MULTIFUNCTIONALITY” (NATIONAL UNIVERSITY CORPORATION OKAYAMA UNIVERSITY, priority 2014, published 2017)
“And” between values parts separate entries of the source, which are not always exact repeats. Equal values may be shown once. “Also recorded” adds a separate entry of the source.

System: CD8^+T cells
Experiment: Multifunctionality of CD8^+T cells of healthy subjects after metformin treatment of PBMC (flow cytometer)
Assay type: cell-based, human
Method: 1. Peripheral blood was obtained from a test subject, and PBMC was separated by a density-gradient centrifugation using a lymphocyte-separating reagent Ficoll-Paque® (GE Healthcare). 3 mL of Ficoll-Paque® was dispensed in a 15-mL tube. 8 mL of the peripheral blood was gently placed on the reagent. At this time, care should be taken not to mix Ficoll-Paque® with the peripheral blood. Centrifugation was performed at 400 g for 30 minutes, thereby separating PBMC. 2. The separated PBMC was preserved in a −150° C. freezer or liquid nitrogen using Bambang Car cell preservation liquid by adjusting the cell number to 2.0×10^6 cell/tube. 3. In the test, the thawed PBMC was cultured for 1 to 10 hours in the presence or absence of […]. The culture was performed using a 24-well plate, and the cell number was adjusted to about 5.0×10^5 cell/well. 4. The cells were collected after 1 to 10 hours, washed with medium, and cultured in the presence of a cell activation reagent (potent nanomolar activator of protein kinase C (PMA, 50 ng/mL), ionomycin (1 μM)) for 6 hours, thereby non-specifically stimulating T cells. At this time, BD Gorgi Stop™ was added to keep the produced cytokines inside the cells. 5. The cells were isolated and washed twice with a cell-staining buffer. First, staining of CD8, PD-1, Tim-3, which are molecules expressed on the T cell surface, was performed. In the staining, a staining buffer was added in an amount of 50 μL per sample. The culture was performed at 4° C. for 30 minutes. 6. The cells were collected and washed twice with a cell-staining buffer. 500 μL of BD Cytofix/Cytoperm was added and cultured at 4° C. for 30 minutes. 7. The cells were collected and washed twice with BD Perm/Wash™. Staining of cytokines IL-2, TNFα, and IFNγ was performed. In the staining, BD Perm/Wash™ was added in an amount of 50 μL per sample. The culture was performed at 4° C. for 30 minutes. 8. The cells were collected and washed twice with BD Perm/Wash™, and 200 μL of BD Perm/Wash™ was added. 9. Analysis was performed using a FACSCanto™ II flow cytometer (Becton, Dickinson and Company).
Among the PBMC treated with PMA/ionomycin in the method shown in (2) above, first, a gate was applied to CD8^+T cells using a FACSCanto™ II flow cytometer (Becton, Dickinson and Company), and then […] were removed by FSC-A and FSC-H. Using parameters FSC-A and SSC-A, a gate was applied to a lymphocyte group, thereby analyzing expression of PD-1 and Tim-3. Further, intracellular cytokines IFNγ, TNFα, and IL-2 were stained, and multifunctionality of CD8^+T cells contained in the PBMC was analyzed (FIG. 1).
PBMC obtained from healthy subjects (N=10) was cultured for an hour in the presence or absence of metformin by the method shown in (2). After metformin was removed, the PBMC was subjected to stimulating culture with PMA/ionomycin for 6 hours by the method shown in (3). Among the resulting PBMC, CD8^+T cells capable of simultaneously producing three kinds of cytokines, i.e., IFNγ, TNFα, and IL-2, were detected. The CD8^+T cells untreated with metformin were determined to be 0.11%, and the CD8^+T cells treated with metformin were determined to be 0.09% (FIG. 2). Accordingly, it was judged that multifunctionality of CD8^+T cells was not increased by a metformin treatment in healthy subjects.
In the PBMC of healthy subjects treated as above, the ratios of CD8^+T cells producing three kinds of cytokines (IFNγ/TNFα/IL-2), CD8^+T cells producing two kinds of cytokines (IFNγ/TNFα or IFNγ/IL-2), and CD8^+T cells producing one kind of cytokine (IFNγ) to the entire CD8^+T cells were calculated and shown in Table 1. The calculation results were compared between the metformin-untreated group (control) and the metformin-treated group (metformin).

[1] = PD-1+, Tim-3+, Healthy Subjects, subjects/total
[2] = PD-1+, Tim-3−, Healthy Subjects, subjects/total
[3] = PD-1−, Tim-3+, Healthy Subjects, subjects/total
[4] = PD-1−, Tim-3−, Healthy Subjects, subjects/total
[5] = Total CD8T, Healthy Subjects, subjects/total
[6] = healthy subjects, PBMC cultured an hour with metformin, then PMA/ionomycin 6 hours, each table row = one subject
[7] = healthy subjects, each table row = one subject
[8] = total CD8^+T cells, healthy subjects

## CN(C)C(=N)N=C(N)N [metformin]
[1]
  Decrease, IFNγ 1-cytokine-producing cell: 4/10
  Decrease, IFNγ/IL-2 2-cytokine-producing cell: 4/10
  Decrease, IFNγ/TNFα 2-cytokine-producing cell: 6/10
  Decrease, IFNγ/TNFα/IL2 3-cytokine-producing cell: 1/10
  Increase, IFNγ 1-cytokine-producing cell: 6/10
  Increase, IFNγ/IL-2 2-cytokine-producing cell: 2/10
  Increase, IFNγ/TNFα 2-cytokine-producing cell: 3/10
  Increase, IFNγ/TNFα/IL2 3-cytokine-producing cell: 3/10 and 5/10
  No Change, IFNγ 1-cytokine-producing cell: 0/10
  No Change, IFNγ/IL-2 2-cytokine-producing cell: 4/10
  No Change, IFNγ/TNFα 2-cytokine-producing cell: 1/10
  No Change, IFNγ/TNFα/IL2 3-cytokine-producing cell: 4/10
[2]
  Decrease, IFNγ 1-cytokine-producing cell: 5/10
  Decrease, IFNγ/IL-2 2-cytokine-producing cell: 6/10
  Decrease, IFNγ/TNFα 2-cytokine-producing cell: 4/10
  Decrease, IFNγ/TNFα/IL2 3-cytokine-producing cell: 5/10
  Increase, IFNγ 1-cytokine-producing cell: 2/10
  Increase, IFNγ/IL-2 2-cytokine-producing cell: 3/10
  Increase, IFNγ/TNFα 2-cytokine-producing cell: 3/10
  Increase, IFNγ/TNFα/IL2 3-cytokine-producing cell: 3/10
  No Change, IFNγ 1-cytokine-producing cell: 3/10
  No Change, IFNγ/IL-2 2-cytokine-producing cell: 1/10
  No Change, IFNγ/TNFα 2-cytokine-producing cell: 3/10
  No Change, IFNγ/TNFα/IL2 3-cytokine-producing cell: 2/10
[3]
  Decrease, IFNγ 1-cytokine-producing cell: 6/10
  Decrease, IFNγ/IL-2 2-cytokine-producing cell: 4/10
  Decrease, IFNγ/TNFα 2-cytokine-producing cell: 5/10
  Decrease, IFNγ/TNFα/IL2 3-cytokine-producing cell: 3/10
  Increase, IFNγ 1-cytokine-producing cell: 2/10
  Increase, IFNγ/IL-2 2-cytokine-producing cell: 1/10
  Increase, IFNγ/TNFα 2-cytokine-producing cell: 3/10
  Increase, IFNγ/TNFα/IL2 3-cytokine-producing cell: 1/10
  No Change, IFNγ 1-cytokine-producing cell: 2/10
  No Change, IFNγ/IL-2 2-cytokine-producing cell: 5/10
  No Change, IFNγ/TNFα 2-cytokine-producing cell: 2/10
  No Change, IFNγ/TNFα/IL2 3-cytokine-producing cell: 6/10
[4]
  Decrease, IFNγ 1-cytokine-producing cell: 4/10
  Decrease, IFNγ/IL-2 2-cytokine-producing cell: 5/10
  Decrease, IFNγ/TNFα 2-cytokine-producing cell: 4/10
  Decrease, IFNγ/TNFα/IL2 3-cytokine-producing cell: 7/10
  Increase, IFNγ 1-cytokine-producing cell: 2/10
  Increase, IFNγ/IL-2 2-cytokine-producing cell: 4/10
  Increase, IFNγ/TNFα 2-cytokine-producing cell: 4/10
  Increase, IFNγ/TNFα/IL2 3-cytokine-producing cell: 2/10
  No Change, IFNγ 1-cytokine-producing cell: 4/10
  No Change, IFNγ/IL-2 2-cytokine-producing cell: 1/10
  No Change, IFNγ/TNFα 2-cytokine-producing cell: 2/10
  No Change, IFNγ/TNFα/IL2 3-cytokine-producing cell: 1/10
Total CD8T, Healthy Subjects
  Increase + No Change, IFNγ/TNFα/IL2, share of subjects: 30%
[5]
  Decrease, IFNγ 1-cytokine-producing cell: 2/10
  Decrease, IFNγ/IL-2 2-cytokine-producing cell: 6/10
  Decrease, IFNγ/TNFα 2-cytokine-producing cell: 5/10
  Decrease, IFNγ/TNFα/IL2 3-cytokine-producing cell: 7/10
  Increase + No Change, IFNγ/TNFα/IL2: 3/10
  Increase, IFNγ 1-cytokine-producing cell: 4/10
  Increase, IFNγ/IL-2 2-cytokine-producing cell: 3/10
  Increase, IFNγ/TNFα 2-cytokine-producing cell: 3/10
  Increase, IFNγ/TNFα/IL2 3-cytokine-producing cell: 0/10
  No Change, IFNγ 1-cytokine-producing cell: 4/10
  No Change, IFNγ/IL-2 2-cytokine-producing cell: 1/10
  No Change, IFNγ/TNFα 2-cytokine-producing cell: 2/10
  No Change, IFNγ/TNFα/IL2 3-cytokine-producing cell: 3/10
Healthy subjects, FIG. 2, untreated with metformin 0.11%
  CD8^+T cells capable of simultaneously producing IFNγ, TNFα and IL-2, treated with metformin: 0.09%
[6]
  ratio of CD8^+T cells producing one kind of cytokine (IFNγ) to the entire CD8^+T cells, metformin: 13.18% and 16.70% and 8.18% and 11.64% and 4.62% and 1.68% and 6.23% and 0.95% and 1.87% and 12.00%
  ratio of CD8^+T cells producing two kinds of cytokines (IFNγ/IL-2) to the entire CD8^+T cells, metformin: 0.47% and 0.48% and 0.71% and 0.28% and 0.15% and 0.03% and 0.21% and 0.05% and 0.14% and 0.24%
  ratio of CD8^+T cells producing two kinds of cytokines (IFNγ/TNFα) to the entire CD8^+T cells, metformin: 31.38% and 3.54% and 32.26% and 11.52% and 16.84% and 1.50% and 11.17% and 0.12% and 1.08% and 3.98%
[7]
  change of IFNγ producing CD8^+T cell ratio by metformin treatment vs control: → (other cases with no significant differences); also recorded: ↑ (a 10% or more increase by a metformin treatment); also recorded: ↓ (a 10% or more decrease by a metformin treatment)
  change of IFNγ/IL-2 producing CD8^+T cell ratio by metformin treatment vs control: ↓ (a 10% or more decrease by a metformin treatment); also recorded: ↑ (a 10% or more increase by a metformin treatment); also recorded: → (other cases with no significant differences)
  change of IFNγ/TNFα producing CD8^+T cell ratio by metformin treatment vs control: ↓ (a 10% or more decrease by a metformin treatment); also recorded: ↑ (a 10% or more increase by a metformin treatment); also recorded: → (other cases with no significant differences)
Healthy subjects, judgement from FIG. 2
  multifunctionality of CD8^+T cells by a metformin treatment: not increased
[8]
  decrease in multifunctionality (three kinds of cytokines), share of subjects: 70%
  increase in multifunctionality (three kinds of cytokines), share of subjects: 0%
